Several values for one entry are separate records, joined by “and”; a condition that tells them apart may be missing. Identical values can stand only once. Counter-ions that a name gives are not always drawn.
Assays:
[1] = molecular target: T1, human GluN1-GluN2C NMDA receptor (Homo sapiens, UniProt Q05586+Q14957); experiment: Manual patch clamp trapping assay, hGluN1/hGluN2C-CHO cells; conditions: test item 1 μM, hydrochloride
Description: Manual patch clamp recordings occurred at −70 mV.
hGluN1/hGluN2C-CHO cells grown on poly-D-lysine coated glass coverslips were studied by manual patch clamp whole cell recording.
(§6) Recordings occurred at −70 mV fixed voltage equal to holding potential.

[2] = system: NMDA receptors of cultured rat cortical neurons; conditions: Mealing et al., 1999; cited from earlier work
[3] = molecular target: T2, human NMDA receptor GluN1-GluN2D (Homo sapiens, UniProt O15399+Q05586); experiment: FLIPR calcium assay, test item effect on L-glutamate CRC, GluN1-GluN2D-CHO; format: cell-based
T2 construct: expressed in transfected cells; host or cells: CHO
T2 sequence (O15399 28-1336, other chains not shown): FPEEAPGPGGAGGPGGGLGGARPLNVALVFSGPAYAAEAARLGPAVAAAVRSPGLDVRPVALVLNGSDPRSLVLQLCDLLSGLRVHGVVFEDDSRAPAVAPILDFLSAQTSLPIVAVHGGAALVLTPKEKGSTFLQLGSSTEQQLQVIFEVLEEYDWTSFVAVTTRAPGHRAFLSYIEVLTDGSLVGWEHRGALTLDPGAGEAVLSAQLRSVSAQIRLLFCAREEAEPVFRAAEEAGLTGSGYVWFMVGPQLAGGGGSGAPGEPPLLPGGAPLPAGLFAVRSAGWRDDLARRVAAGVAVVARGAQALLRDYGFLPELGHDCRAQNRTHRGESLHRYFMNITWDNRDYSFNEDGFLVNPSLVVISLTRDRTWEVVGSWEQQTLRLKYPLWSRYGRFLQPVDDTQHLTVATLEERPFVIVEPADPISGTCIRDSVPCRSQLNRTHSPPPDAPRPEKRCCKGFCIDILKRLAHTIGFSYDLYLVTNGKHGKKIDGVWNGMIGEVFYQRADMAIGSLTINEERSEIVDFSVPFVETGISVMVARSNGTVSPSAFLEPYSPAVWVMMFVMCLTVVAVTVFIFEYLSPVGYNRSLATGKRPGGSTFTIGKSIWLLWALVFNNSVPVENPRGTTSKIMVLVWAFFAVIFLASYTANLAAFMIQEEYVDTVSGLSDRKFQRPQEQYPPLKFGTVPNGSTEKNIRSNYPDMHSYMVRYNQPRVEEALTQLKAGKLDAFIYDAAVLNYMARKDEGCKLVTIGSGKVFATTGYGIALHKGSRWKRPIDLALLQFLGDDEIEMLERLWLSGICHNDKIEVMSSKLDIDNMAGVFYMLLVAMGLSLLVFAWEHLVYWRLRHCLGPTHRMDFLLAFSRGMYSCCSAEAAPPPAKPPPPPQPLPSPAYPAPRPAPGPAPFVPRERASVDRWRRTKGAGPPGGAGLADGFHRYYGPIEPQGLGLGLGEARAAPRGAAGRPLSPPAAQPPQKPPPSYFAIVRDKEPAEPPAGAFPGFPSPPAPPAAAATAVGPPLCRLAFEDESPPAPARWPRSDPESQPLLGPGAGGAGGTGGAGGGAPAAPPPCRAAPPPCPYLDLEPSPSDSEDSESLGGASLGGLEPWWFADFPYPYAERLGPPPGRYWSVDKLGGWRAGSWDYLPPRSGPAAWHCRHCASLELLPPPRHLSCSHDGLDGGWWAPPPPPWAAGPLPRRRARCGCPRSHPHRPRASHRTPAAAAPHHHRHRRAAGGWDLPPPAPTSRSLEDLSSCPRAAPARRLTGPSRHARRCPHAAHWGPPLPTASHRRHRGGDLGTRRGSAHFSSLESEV
Method: (§1) FLIPR determination of intracellular calcium level was used as a read-out for NMDAR activation.
(§2) 400× compound plate was stored at −20° C. until FLIPR experimental day.
(§3) 4× compound plate was generated from 400× compound plate by addition of up to 30 μl/well of compound buffer on FLIPR experimental day.
(§4) A FLIPR system was used to monitor intracellular calcium level in NMDAR cell lines, pre-loaded for 1 hour with Fluo-4, and then washed with assay buffer.
(§5) Y=Bottom+(Top−Bottom)/(1+10^((LogEC50−Log[A])*HillSlope))

[4] = molecular target: T3, human NMDA receptor GluN1-GluN2A (Homo sapiens, UniProt Q05586+Q12879); experiment: FLIPR calcium assay, test item effect on L-glutamate CRC, GluN1-GluN2A-CHO; format: cell-based
T3 construct: expressed in transfected cells; host or cells: CHO
T3 sequence (Q12879 23-1464, other chains not shown): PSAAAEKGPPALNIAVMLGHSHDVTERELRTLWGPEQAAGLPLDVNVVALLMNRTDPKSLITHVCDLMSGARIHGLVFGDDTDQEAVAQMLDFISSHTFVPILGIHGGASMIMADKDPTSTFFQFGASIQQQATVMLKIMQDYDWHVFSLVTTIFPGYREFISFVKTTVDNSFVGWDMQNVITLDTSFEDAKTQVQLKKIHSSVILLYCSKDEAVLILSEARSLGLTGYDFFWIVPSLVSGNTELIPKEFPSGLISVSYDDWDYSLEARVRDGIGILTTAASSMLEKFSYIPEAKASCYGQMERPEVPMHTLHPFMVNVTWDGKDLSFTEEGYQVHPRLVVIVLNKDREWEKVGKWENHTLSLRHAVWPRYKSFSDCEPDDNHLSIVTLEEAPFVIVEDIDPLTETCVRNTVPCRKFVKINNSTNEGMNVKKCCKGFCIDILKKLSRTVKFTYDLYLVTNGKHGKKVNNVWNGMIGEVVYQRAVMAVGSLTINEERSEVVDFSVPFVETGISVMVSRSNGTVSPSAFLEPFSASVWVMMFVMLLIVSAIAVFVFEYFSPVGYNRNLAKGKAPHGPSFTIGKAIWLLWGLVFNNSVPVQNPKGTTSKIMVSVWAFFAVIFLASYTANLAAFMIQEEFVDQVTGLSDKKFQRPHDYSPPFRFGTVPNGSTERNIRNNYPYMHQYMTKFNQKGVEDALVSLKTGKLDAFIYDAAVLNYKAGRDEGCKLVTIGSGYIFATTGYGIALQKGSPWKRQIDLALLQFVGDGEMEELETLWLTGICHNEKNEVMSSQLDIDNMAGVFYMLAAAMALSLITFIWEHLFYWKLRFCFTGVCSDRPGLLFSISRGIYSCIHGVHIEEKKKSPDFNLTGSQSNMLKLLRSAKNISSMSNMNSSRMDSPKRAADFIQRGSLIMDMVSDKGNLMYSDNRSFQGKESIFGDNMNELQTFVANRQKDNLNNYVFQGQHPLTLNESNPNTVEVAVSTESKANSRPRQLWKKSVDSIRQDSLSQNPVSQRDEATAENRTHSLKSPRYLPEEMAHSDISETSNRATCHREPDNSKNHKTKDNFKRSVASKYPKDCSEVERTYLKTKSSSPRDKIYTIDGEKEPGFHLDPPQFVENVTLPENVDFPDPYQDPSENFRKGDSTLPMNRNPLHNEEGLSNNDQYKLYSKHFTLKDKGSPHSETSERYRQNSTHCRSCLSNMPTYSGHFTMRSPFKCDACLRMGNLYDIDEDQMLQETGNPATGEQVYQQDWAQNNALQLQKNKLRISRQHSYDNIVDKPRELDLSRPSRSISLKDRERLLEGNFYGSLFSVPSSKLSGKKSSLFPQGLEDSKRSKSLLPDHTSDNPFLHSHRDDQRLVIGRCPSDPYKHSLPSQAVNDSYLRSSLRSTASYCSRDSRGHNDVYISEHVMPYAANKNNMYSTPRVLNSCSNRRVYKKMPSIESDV
Method: as §1, §2, §3, §4, §5

[5] = system: diheteromeric human recombinant NMDAR containing GluN1 plus GluN2A, GluN2B, GluN2C or GluN2D; experiment: FLIPR calcium assay, statements for all four NMDAR subtypes together; format: cell-based; conditions: 6 test item concentrations
Description: An operational equation for allosteric modulators (Leach K, Sexton P M and Christopoulos A, Allosteric GPCR modulators: taking advantage of permissive receptor pharmacology, Trends Pharmacol. Sci. 28: 382-389, 2007; Kenakin T P, Overview of receptor interaction of agonists and antagonists, Curr. Protoc. Pharmacol. Chapter 4: Unit 4.1, 2008, Kenakin T P, Biased signalling and allosteric machines: new vistas and challenges for drug discovery, Br. J. Pharmacol. 165: 1659-1669, 2012) was created in Prism 8 (GraphPad) software to estimate KB and a parameters for every test item, with the assumption that, as a pore blocker, every test item would be able to produce a compete blockade of agonist response, at sufficiently high concentration: […]

[6] = molecular target: T4, human NMDA receptor GluN1-GluN2C (Homo sapiens, UniProt Q05586+Q14957); experiment: FLIPR calcium assay, test item effect on L-glutamate CRC, GluN1-GluN2C-CHO; format: cell-based
T4 construct: expressed in transfected cells; host or cells: CHO
T4 sequence (Q14957 20-1233, other chains not shown): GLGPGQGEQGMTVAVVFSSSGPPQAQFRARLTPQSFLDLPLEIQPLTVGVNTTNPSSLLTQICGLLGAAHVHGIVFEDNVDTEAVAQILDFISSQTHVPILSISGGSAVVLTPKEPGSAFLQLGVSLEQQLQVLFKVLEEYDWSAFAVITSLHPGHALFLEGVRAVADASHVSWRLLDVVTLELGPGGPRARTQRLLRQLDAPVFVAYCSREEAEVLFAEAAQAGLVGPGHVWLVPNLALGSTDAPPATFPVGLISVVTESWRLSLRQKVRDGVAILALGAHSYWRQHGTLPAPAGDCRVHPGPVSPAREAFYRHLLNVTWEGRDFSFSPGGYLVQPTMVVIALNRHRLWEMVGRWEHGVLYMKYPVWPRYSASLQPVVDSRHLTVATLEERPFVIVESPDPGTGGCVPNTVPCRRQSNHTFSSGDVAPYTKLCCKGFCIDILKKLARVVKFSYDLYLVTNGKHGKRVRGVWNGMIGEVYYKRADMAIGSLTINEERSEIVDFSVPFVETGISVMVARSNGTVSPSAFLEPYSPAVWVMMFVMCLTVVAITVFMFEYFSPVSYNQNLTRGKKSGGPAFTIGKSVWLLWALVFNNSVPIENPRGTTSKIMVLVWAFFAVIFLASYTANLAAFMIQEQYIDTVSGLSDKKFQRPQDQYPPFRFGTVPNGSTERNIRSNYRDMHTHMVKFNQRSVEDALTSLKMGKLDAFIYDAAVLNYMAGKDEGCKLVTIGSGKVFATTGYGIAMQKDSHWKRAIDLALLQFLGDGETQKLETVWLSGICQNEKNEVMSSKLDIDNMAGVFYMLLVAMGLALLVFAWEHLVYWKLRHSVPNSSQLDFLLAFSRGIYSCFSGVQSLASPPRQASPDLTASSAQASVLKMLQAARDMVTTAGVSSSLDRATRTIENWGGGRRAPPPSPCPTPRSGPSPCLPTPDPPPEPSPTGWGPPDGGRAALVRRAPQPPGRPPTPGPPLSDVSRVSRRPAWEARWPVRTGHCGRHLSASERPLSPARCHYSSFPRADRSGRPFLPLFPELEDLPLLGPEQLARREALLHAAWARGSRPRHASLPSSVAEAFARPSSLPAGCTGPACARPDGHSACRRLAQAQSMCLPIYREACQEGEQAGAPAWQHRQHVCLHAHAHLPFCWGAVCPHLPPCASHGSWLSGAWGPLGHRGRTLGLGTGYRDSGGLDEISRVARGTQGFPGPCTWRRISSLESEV
Method: as §1, §2, §3, §4, §5

[7] = molecular target: T1, human GluN1-GluN2C NMDA receptor; experiment: Manual patch clamp on-/off-rate assay, hGluN1/hGluN2C-CHO cells; conditions: for % Current (mean ± SEM): 10/10 μM L-glutamate/glycine induced current, hGluN1/hGluN2C-CHO; for Tau-off: continuous 10/10 μM L-glutamate/glycine; for I2 (% current): current after 50 seconds removal of test item; for Tau-on: 10/10 μM L-glutamate/glycine; for % block of 10/10 μM L-glutamate/glycine induced current: −70 mV, no Mg2+
Method: Manual patch clamp recordings occurred at −70 mV. […] Tau-on and tau-off were estimated by curve fitting to first order exponential equations.
Test items were evaluated using a manual patch clamp whole-cell recording methodology, using HEKA Elektronik Patchmaster system, coupled to BioLogic RSC-160 perfusion device (BioLogic, Seyssinet-Pariset, France).
hGluN1/hGluN2C-CHO cells grown on poly-D-lysine coated glass coverslips were studied by manual patch clamp whole cell recording. Extracellular and intracellular solutions for patch clamp recording had following composition:
as §6
Test item on-/off-rates were measured by curve fitting the development of their induced current block, or relief from it.
At least n=10 independent cells were analysed. […] Time constant of onset (tau-on, seconds) and offset (tau-off, seconds) of test item inhibition of glutamate induced current were calculated using first order exponential equations as shown below:
I(t)=I1+(I2−I1)×(1−e^−t/τoff)

[8] = molecular target: T5, human NMDA receptor GluN1-GluN2B (Homo sapiens, UniProt Q05586+Q13224); experiment: cell-based; format: cell-based
T5 construct: expressed in transfected cells; host or cells: CHO
Method: as §1, §2, §3, §4, §5

[9] = highest affinity for a NMDAR subtype = 100%
[10] = operational analysis for allosteric modulators
[11] = 10 μM test item, offset fitting

T1 sequence (Q14957 20-1233, other chains not shown): as above

CNC1(c2ccccc2Cl)CCCCC1=O (racemic) [(±)-Ketamine, (±)-ketamine hydrochloride]
Block trapped (BT), trapping [1]: 86.7% | Block (B) of 10/10 μM L-glutamate/glycine-evoked currents ([1]; listed as (±)-ketamine): 74.0%±1.2% and 74.0% | Block trapped (BT), trapping ([1]; listed as (±)-ketamine): 86.7%±1.8% and 86.7% | Residual block (BR) ([1]; listed as (±)-ketamine): 64.1%±1.3% and 64.1% | trapping [2]: 86.0% | Kb [3]: 1.4 µM | % affinity ratio [3, 9]: 33% | α, estimated cooperativity term [3, 10]: 0.15 | L-glutamate CRC HillSlope ([3]; with test item 49 nM): 1.6 | L-glutamate CRC LogEC50 ([3]; with test item 49 nM): −7.4 | L-glutamate CRC HillSlope ([3]; with test item 195 nM): 1.5 | L-glutamate CRC LogEC50 ([3]; with test item 195 nM): −7.3 | L-glutamate CRC HillSlope ([3]; with test item 781 nM): 1.4 | L-glutamate CRC LogEC50 ([3]; with test item 781 nM): −7.2 | L-glutamate CRC HillSlope ([3]; with test item 3.1 μM): 1.8 | L-glutamate CRC LogEC50 ([3]; with test item 3.1 μM): −7.1 | L-glutamate CRC HillSlope ([3]; with test item 12.5 μM): 1.6 | L-glutamate CRC LogEC50 ([3]; with test item 12.5 μM): −6.9 | L-glutamate CRC HillSlope ([3]; with test item 50 μM): 2.0 | L-glutamate CRC LogEC50 ([3]; with test item 50 μM): −6.7 | Kb [4]: 4.3 µM | % affinity ratio [4, 9]: 11% | α, estimated cooperativity term [4, 10]: 0.17 | L-glutamate CRC HillSlope ([4]; with test item 49 nM): 1.2 | L-glutamate CRC LogEC50 ([4]; with test item 49 nM): −6.5 | L-glutamate CRC HillSlope ([4]; with test item 195 nM): 1.2 | L-glutamate CRC LogEC50 ([4]; with test item 195 nM): −6.5 | L-glutamate CRC HillSlope ([4]; with test item 781 nM): 1.0 | L-glutamate CRC LogEC50 ([4]; with test item 781 nM): −6.4 | L-glutamate CRC HillSlope ([4]; with test item 3.1 μM): 1.1 | L-glutamate CRC LogEC50 ([4]; with test item 3.1 μM): −6.4 | L-glutamate CRC HillSlope ([4]; with test item 12.5 μM): 1.3 | L-glutamate CRC LogEC50 ([4]; with test item 12.5 μM): −6.4 | L-glutamate CRC HillSlope ([4]; with test item 50 μM): 1.9 | L-glutamate CRC LogEC50 ([4]; with test item 50 μM): −6.2 | profile on L-glutamate CRC [5]: insurmountable profile | Kb [6]: 0.46 µM | potency with respect to dextromethadone ([6]; from the FLIPR study (Example 1)): ~10 fold | % affinity ratio [6, 9]: 100% | α, estimated cooperativity term [6, 10]: 0.13 | L-glutamate CRC HillSlope ([6]; with test item 49 nM): 1.5 | L-glutamate CRC LogEC50 ([6]; with test item 49 nM): −6.9 | L-glutamate CRC HillSlope ([6]; with test item 195 nM): 1.5 | L-glutamate CRC LogEC50 ([6]; with test item 195 nM): −6.8 | L-glutamate CRC HillSlope ([6]; with test item 781 nM): 1.3 | L-glutamate CRC LogEC50 ([6]; with test item 781 nM): −6.6 | L-glutamate CRC HillSlope ([6]; with test item 3.1 μM): 1.2 | L-glutamate CRC LogEC50 ([6]; with test item 3.1 μM): −6.6 | L-glutamate CRC HillSlope ([6]; with test item 12.5 μM): 2.0 | L-glutamate CRC LogEC50 ([6]; with test item 12.5 μM): −6.7 | L-glutamate CRC HillSlope ([6]; with test item 50 μM): 2.5 | L-glutamate CRC LogEC50 ([6]; with test item 50 μM): −6.4 | % Current (mean ± SEM) ([7]; 0.3 μM test item): 44.2 ± 3.0% | % Current (mean ± SEM) ([7]; 1 μM test item): 74.6 ± 2.2% | I1 (% current) ([7]; 1 μM test item, offset fitting): 28.5 % current | Tau-off ([7]; 1 μM test item, offset fitting): 151.0 s | I2 (% current) ([7]; 1 μM test item, offset fitting): 95.5 % current | Tau-on ([7]; 1 μM test item, onset fitting): 47.1 s | I1 (% current) ([7]; 1 μM test item, onset fitting, current after 30 seconds application of test item): 28.7 % current | % Current (mean ± SEM) ([7]; 3 μM test item): 89.7 ± 0.6% | I1 (% current) [7, 11]: 4.9 % current | Tau-off [7, 11]: 163.2 s | I2 (% current) [7, 11]: 102.9 % current | Tau-on ([7]; 10 μM test item, onset fitting): 9.9 s | I1 (% current) ([7]; 10 μM test item, onset fitting, current after 30 seconds application of test item): 3.6 % current | % block of 10/10 μM L-glutamate/glycine induced current ([7]; test item 0.3 μM, hydrochloride): 44% and 44.2%±3.0% and 44.2% | tau-off, mean of single trace fittings ([7]; test item 1 μM): 151.7 ± 6.3 s | tau-on ([7]; test item 1 μM): 47.1 s | tau-on, average of single trace fittings ([7]; test item 1 μM): 47.3 ± 1.4 s | tau-off ([7]; test item 1 μM, hydrochloride): 151 s | tau-off ([7]; test item 1 μM, listed as (±)-ketamine, hydrochloride): 151.0 s | % block of 10/10 μM L-glutamate/glycine induced current ([7]; test item 1 μM, hydrochloride): 74.6%±2.2% and 75% and 74.6% | % block of 10/10 μM L-glutamate/glycine induced current ([7]; test item 3 μM, hydrochloride): 90% and 89.7%±0.6% and 89.7% | tau-off ([7]; test item 10 μM): 163.2 s | tau-on ([7]; test item 10 μM): 9.9 s | % block of 10/10 μM L-glutamate/glycine induced current ([7]; test item 10 μM, hydrochloride): 97.2%±0.3% and 97% and 97.2% | % affinity ratio [8]: 42% | Kb [8]: 1.1 µM | α, estimated cooperativity term [8]: 0.14 | L-glutamate CRC HillSlope ([8]; hydrochloride): 2.0 and 1.4 and 1.1 and 1.2

— US20230017786A1, “DEXTR[…] A DISEASE-MODIFYING TREATMENT FOR NEUROPSYCHIATRIC DISORDERS AND DISEASES” (priority 2020, published 2023)
